Test results: patent US11384060B2, “Amide compounds and use thereof” (ALPHALA CO., LTD., priority 2017, dated 2022)
Read-outs that look alike come from different tables or passages of the source.

Experiments:
[1] = target: T1, glucagon receptor (GCGR) (Homo sapiens, UniProt P47871); assay: I125-glucagon binding assay (competition, GCGR membrane fractions)
T1 construct: expressed in transfected cells; host or cells: CHO-K1 cells overexpressing GCGR (membrane fractions)
Experimental: I^125-Glucagon Binding Assay
The binding affinity of each compound was evaluated by a competition assay with I^125-glucagon. GCGR membrane fractions were obtained from GCGR overexpressed CHO-K1 cells as a stock of 1 mg/ml concentration. To evaluate the IC50 of compounds binding to GCGR, GCGR membrane fractions were treated with compounds with a serial dilution. The membrane fractions were diluted to 7.5 microgram per well in 70 microliter assay buffer contained 50 mM Tris pH 7.4 and 0.5% (w/v) bovine serum albumin and added into 96 wells plate. The membrane fractions were then mixed with 10 microliter diluted compounds. After 5 minutes pre-incubation, 20 microliter I^125 labeled glucagon (Perkin Elmer) was added into each well at the final concentration of 0.0625 nM. The assay mixtures were incubated at 25° C. for 30 minutes and then transferred onto the Millipore MultiScreen GF/B Plate coated with 0.5% (w/v) Polyethyleneimine. The filter plate was washed with wash buffer contained 50 mM Tris pH 7.4 for 2 times, 300 microliter each time. The residual isotope was detected by Hidex CHAMELEON V micro-beta counter and the IC50 value of each compound binding to GCGR was calculated with non-linear regression.

[2] = target: T2, glucagon receptor (GCGR) overexpressed CHO-K1 cells or human primary hepatocytes (Homo sapiens, UniProt P47871); assay: Glucagon cAMP inhibition assay (Cisbio cAMP Dynamic 2 HTRF); type: cell-based
T2 construct: expressed in transfected cells; host or cells: GCGR overexpressed CHO-K1 cells or human primary hepatocytes (endogenous receptor)
T2 sequence (P47871 26-477): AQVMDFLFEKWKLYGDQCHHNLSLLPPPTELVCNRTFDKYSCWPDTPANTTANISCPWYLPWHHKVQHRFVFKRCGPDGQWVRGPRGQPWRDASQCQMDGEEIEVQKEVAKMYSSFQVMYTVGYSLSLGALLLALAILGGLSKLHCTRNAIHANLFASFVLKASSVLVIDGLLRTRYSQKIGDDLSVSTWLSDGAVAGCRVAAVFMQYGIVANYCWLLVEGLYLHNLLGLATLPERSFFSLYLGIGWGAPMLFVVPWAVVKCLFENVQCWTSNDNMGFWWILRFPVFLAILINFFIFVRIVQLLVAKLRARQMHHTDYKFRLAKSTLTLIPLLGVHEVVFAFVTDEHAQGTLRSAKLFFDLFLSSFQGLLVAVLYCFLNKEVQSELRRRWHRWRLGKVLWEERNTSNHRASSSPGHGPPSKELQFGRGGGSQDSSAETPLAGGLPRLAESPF
Experimental: Glucagon cAMP Inhibition Assay
Downstream secondary messenger cAMP induced by glucagon was detected by Cisbio cAMP Dynamic 2 kit. Testing compounds were each prepared as a dimethyl sulfoxide (DMSO) solution at the concentration of 10 mM. To evaluate the potency of compounds in inhibiting the cAMP production, glucagon receptor (GCGR) overexpressed CHO-K1 cells or human primary hepatocytes were treated with compounds with a serial dilution. The cells were re-suspended in Hank's Balanced Salt solution (HBSS) contained 0.1% (w/v) bovine serum albumin and 800 nM 3-isobutyl-1-methylxanthine (IBMX) and seeded into low volume, 384 wells white plate. The diluted compounds were then added into the plate for 30 minutes pre-incubation where the final DMSO concentration was 1%. The cells were stimulated with glucagon at the concentration equaled to EC50 (an indicium of the concentration of a drug that gives half-maximal response) for 30 minutes at room temperature. After incubation, lysis buffer contain cAMP antibody and fluorescence acceptor were added into each well for additional 60 minutes incubation. Results were recorded by Molecular Devices SpectraMax Paradigm with the HTRF Detection Cartridges and the IC50 value of each compound in inhibiting the cAMP production was calculated with non-linear regression based on the amount of cAMP production.

[3] = competition with I125-glucagon 0.0625 nM, membrane fractions of GCGR overexpressed CHO-K1 cells
[4] = inhibition of glucagon (EC50 concentration) induced cAMP production

T1 sequence (P47871 26-477): as above

Q: `CC(C)COC[C@H](Cc1ccc(-c2cc(F)c(F)c(F)c2)cc1)Nc1ccc(C(=O)NCCC(=O)O)cc1` [Compound 19-31, (S)-3-(4-((1-isobutoxy-3-(3′,4′,5′-trifluoro-[1,1′-biphenyl]-4-yl)propan-2-yl)amino)benzamido)propanoic Acid] was tested. Which IC50 [1] did it give?
A: 500 nM

Q: And the “IC50 cAMP” value [2]?
A: 1.341 µM

Q: Which IC50 [1, 3] does the source give for `CCCC[C@@H](COc1ccc(-c2ccc(C(F)(F)F)cc2F)cc1)Nc1ccc(C(=O)NCCC(=O)O)cc1` [Compound 1-27, (S)-3-(4-((1-((2′-fluoro-4′-(trifluoromethyl)-[1,1′-biphenyl]-4-yl)oxy)hexan-2-yl)amino)benzamido)propanoic Acid] here?
A: 108 nM

Q: What about the “IC50 cAMP” value [2, 4] of the same compound?
A: 0.0965 µM

Q: How did the IC50 [1, 3] turn out when `CC[C@H](C)[C@@H](COc1ccc(-c2ccc(C(F)(F)F)cc2F)nc1)Nc1ccc(C(=O)NCCC(=O)O)cc1` [Compound 10-14, 3-(4-(((2S,3S)-1-((6-(2-fluoro-4-(trifluoromethyl)phenyl)pyridin-3-yl)oxy)-3-methylpentan-2-yl)amino)benzamido)propanoic Acid] was run?
A: 306 nM

Q: And the “IC50 cAMP” value [2, 4]?
A: 0.4971 µM

Q: For `CCCOC[C@H](Cc1ccc(-c2cc3ccccc3[nH]2)cc1)Nc1ccc(C(=O)NCCC(=O)O)cc1` [Compound 19-27, (S)-3-(4-((1-(4-(1H-indol-2-yl)phenyl)-3-propoxypropan-2-yl)amino)benzamido)propanoic Acid], which IC50 [1] is on record?
A: 455 nM

Q: What about the “IC50 cAMP” value [2] of the same compound?
A: 4.952 µM

Q: Which results are given for `CC(C)[C@@H](COc1ccc(-c2ccc(C(C)(C)C)cc2)nn1)Nc1ccc(C(=O)NCCC(=O)O)cc1` [Compound 17-12, (S)-3-(4-((1-((6-(4-(tert-buty)phenyl)pyridazin-3-yl)oxy)-3-methylbutan-2-yl)amino)benzamido)propanoic Acid]?
A: IC50 [1, 3]: 20000 nM; IC50 cAMP [2, 4]: 6.494 µM

Q: With `CC(C)[C@@H](COc1ccc(-c2ccc(C(F)(F)F)cc2Cl)nc1)Nc1ccc(C(=O)NCCC(=O)O)cn1` [Compound 11-1, (S)-3-(6-((1-((6-(2-chloro-4-(trifluoromethyl)phenyl)pyridin-3-yl)oxy)-3-methylbutan-2-yl)amino)nicotinamido)propanoic Acid] as the compound, how does the IC50 [1, 3] read?
A: 1740 nM

Q: What about the “IC50 cAMP” value [2, 4] of the same compound?
A: 8.711 µM

Q: Which IC50 [1, 3] does the source give for `CC[C@H](C)[C@@H](COc1ccc(-c2cc3ccccc3o2)cc1)Nc1ccc(C(=O)NCCC(=O)O)cc1` [Compound 1-4, 3-(4-(((2S,3S)-1-(4-(benzofuran-2-yl)phenoxy)-3-methylpentan-2-yl)amino)benzamido)propanoic Acid] here?
A: 184 nM

Q: What about the “IC50 cAMP” value [2, 4] of the same compound?
A: 0.528 µM

Q: How did the IC50 [1, 3] turn out when `CC(C)[C@@H](COc1ccc(-c2ccc(C(F)(F)F)cc2Cl)nc1)Nc1ccc(C(=O)NCCC(=O)O)cc1` [Compound 10-2] was run?
A: 255 nM

Q: What about the “IC50 cAMP” value [2, 4] of the same compound?
A: 1.805 µM

Q: `CC[C@H](C)[C@@H](COc1ccc(-c2ccc(C(F)(F)F)cc2)nn1)Nc1ccc(C(=O)NCCC(=O)O)cc1` [Compound 17-3, 3-(4-(((2S,3S)-3-methyl-1-((6-(4-(trifluoromethyl)phenyl)pyridazin-3-yl)oxy)pentan-2-yl)amino)benzamido)propanoic Acid] was tested. Which IC50 [1, 3] did it give?
A: 989 nM

Q: What about the “IC50 cAMP” value [2, 4] of the same compound?
A: 1.307 µM

Q: What does the source list for `CC(C)(C)[C@@H](COc1ccc(-c2cc3ccccc3o2)cc1)Nc1ccc(C(=O)NCCC(=O)O)cc1` [Compound 1-40, (S)-3-(4-((1-(4-(benzofuran-2-yl)phenoxy)-3,3-dimethylbutan-2-yl)amino)benzamido)propanoic Acid]?
A: IC50 [1, 3]: 195 nM; IC50 cAMP [2, 4]: 0.2353 µM

Q: Which IC50 [1, 3] does the source give for `CC[C@H](C)[C@@H](COc1ccc(-c2ccc(Cl)cc2Cl)cc1)Nc1cnc(C(=O)NCCC(=O)O)cn1` [Compound 9-2, 3-(5-(((2S,3 S)-1-((2′,4′-dichloro-[1,1′-biphenyl]-4-yl)oxy)-3-methylpentan-2-yl)amino)pyrazine-2-carboxamido)propanoic Acid] here?
A: 363 nM

Q: And the “IC50 cAMP” value [2, 4]?
A: 0.427 µM

Q: `CCOC(=O)CCNC(=O)c1ccc(N[C@H](Cc2ccc(-c3ccc(C(F)(F)F)cc3)cc2)C(=O)Nc2ccc(OC(F)(F)F)cc2)cc1` [Compound 24-27, Ethyl (R)-3-(4-((1-oxo-1-((4-(trifluoromethoxy)phenyl)amino)-3-(4′-(trifluoromethyl)-[1,1′-biphenyl]-4-yl)propan-2-yl)amino)benzamido)propanoate] was tested. Which IC50 [1] did it give?
A: 1280 nM

Q: And the “IC50 cAMP” value [2]?
A: 0.3185 µM

Q: How did the IC50 [1] turn out when `CCC(C)[C@@H](COc1nnc(-c2ccc(OC(F)(F)F)cc2)o1)Nc1ccc(C(=O)NCCC(=O)O)cc1` (stereo partly drawn) [Compound 22-8, 3-(4-(((2S)-3-methyl-1-((5-(4-(trifluoromethoxy)phenyl)-1,3,4-oxadiazol-2-yl)oxy)pentan-2-yl)amino)benzamido)propanoic Acid] was run?
A: > 30000 nM

Q: How did the IC50 [1, 3] turn out when `CC[C@H](C)[C@@H](COc1ccc(-c2nnc(C(C)(C)C)o2)c(OC)c1)Nc1ccc(C(=O)NCCC(=O)O)cc1` [Compound 13-13, 3-(4-(((2S,3S)-1-(4-(5-(tert-butyl)-1,3,4-oxadiazol-2-yl)-3-methoxyphenoxy)-3-methylpentan-2-yl)amino)benzamido)propanoic Acid] was run?
A: 883 nM

Q: How did the “IC50 cAMP” value ([2]; uM) turn out when `CCOC(=O)CCNC(=O)c1ccc(N[C@@H](Cc2ccc3ccccc3c2)C(=O)NC(C)C)cc1` [Compound 24-13, Ethyl (S)-3-(4-((1-(isopropylamino)-3-(naphthalen-2-yl)-1-oxopropan-2-yl)amino)benzamido)propanoate] was run?
A: >10 µM

Q: With `CC(C)NC(=O)[C@H](Cc1ccc2ccccc2c1)Nc1ccc(C(=O)NCCC(=O)O)cc1` [Compound 24-14, (S)-3-(4-((1-(isopropylamino)-3-(naphthalen-2-yl)-1-oxopropan-2-yl)amino)benzamido)propanoic Acid] as the compound, how does the “IC50 cAMP” value ([2]; uM) read?
A: >10 µM

Q: For `CC[C@H](C)[C@@H](COc1ccc(-c2ccc(F)cc2F)cc1)Nc1ccc(C(=O)NCCC(=O)O)cc1` [Compound 1-26], which “IC50 cAMP” value [2, 4] is on record?
A: 0.213 µM

Q: `CC(C)NC(=O)[C@H](Cc1cccc2ccccc12)Nc1ccc(C(=O)NCCC(=O)O)cc1` [Compound 24-12, (S)-3-(4-((1-(isopropylamino)-3-(naphthalen-1-yl)-1-oxopropan-2-yl)amino)benzamido)propanoic Acid] was tested. Which “IC50 cAMP” value ([2]; uM) did it give?
A: >10 µM

Q: How did the “IC50 cAMP” value [2] turn out when `Cc1cc(C)c(-c2ccc(C[C@H](Nc3ccc(C(=O)NCCS(=O)(=O)O)cc3)C(=O)Nc3ccc(C(C)(C)C)cc3)cc2)c(C)c1` [Compound 23-26, (S)-2-(4-((1-((4-(tert-butyl)phenyl)amino)-1-oxo-3-(2′,4′,6′-trimethyl-[1,1′-biphenyl]-4-yl)propan-2-yl)amino)benzamido)ethane-1-sulfonic Acid] was run?
A: 39.3 µM

Q: `CCOC(=O)CCNC(=O)c1ccc(N[C@@H](Cc2cccc3ccccc23)C(=O)NC(C)C)cc1` [Compound 24-11, Ethyl (S)-3-(4-((1-(isopropylamino)-3-(naphthalen-1-yl)-1-oxopropan-2-yl)amino)benzamido)propanoate] was tested. Which “IC50 cAMP” value ([2]; uM) did it give?
A: >10 µM

Q: How did the IC50 [1] turn out when `CCC(C)[C@@H](COc1nnc(-c2ccc(C(C)(C)C)cc2)o1)Nc1ccc(C(=O)NCCC(=O)O)cc1` (stereo partly drawn) [Compound 22-9, 3-(4-(((2S)-1-((5-(4-(tert-butyl)phenyl)-1,3,4-oxadiazol-2-yl)oxy)-3-methylpentan-2-yl)amino)benzamido)propanoic Acid] was run?
A: > 30000 nM

Q: Which “IC50 cAMP” value [2] does the source give for `CCOC(=O)CCNC(=O)c1ccc(N[C@@H](Cc2c[nH]c3ccccc23)C(=O)Nc2ccc(-c3cc4ccccc4o3)cc2)cc1` [Compound 23-27, Ethyl (S)-3-(4-((1-((4-(benzofuran-2-yl)phenyl)amino)-3-(1H-indol-3-yl)-1-oxopropan-2-yl)amino)benzamido)propanoate] here?
A: 34.6 µM
